Earlier results, collected in US11382901B2, “Tropicamide-based ophthalmic formulations” (FOR HEALTH PHARMA S.R.L., priority 2017, dated 2022).

Key:
[1] = system: RAW 264.7 cells (murine macrophage-like)
[2] = system: NIH/3T3 cells (murine fibroblasts)

tyloxapol
in vitro toxicity [1]: considerable in vitro toxicity | in vitro toxicity [2]: considerable in vitro toxicity
